Structures can show the parent of a compound that is named as a salt.
Legend:
PK, oral administration = format: in vivo, male Sprague Dawley rats; conditions: male, Sprague Dawley, plasma, rat, dose 3 mg/kg
Procedure: (§1) Pharmacokinetic parameters were determined in male Sprague Dawley rats (Charles River, UK, 250-300 g; or Vital River Laboratory Animal Technology Co Ltd, Beijing, China, 7-9 weeks old). Animals were individually housed during the study and maintained under a 12 h light/dark cycle. Animals had free access to food and water except that orally dosed animals were food deprived overnight prior to the study. For intravenous administration, compounds were formulated as a solution in water or DMSO:PBS [10:90] in 2 mL/kg dosing volume and administered via tail vein. For oral administration, compounds were formulated as a solution in water or DMSO:water [10:90] in 5 mL/kg dosing volume and administered orally. Serial blood samples (about 120-300 μL) were taken from each animal at each of 8 time-points post dose (0.083, 0.25, 0.5, 1, 2, 4, 8 and 24 h). Samples were held on ice for no longer than 30 minutes before centrifugation (10,000 rpm (8,385 g) for 3 minutes; or 5,696 rpm (3,000 g) for 15 minutes) for plasma generation. Plasma was frozen on dry ice prior to bioanalysis. PK parameters were generated from LC-MS/MS data using Dotmatics or Phoenix WinNonlin 6.3 software.

NLRP3 [1] = molecular target: T1, NLRP3 (Homo sapiens (Human), UniProt Q96P20); assay: THP-1 cells pyroptosis assay (LPS + nigericin, resazurin read-out); format: cell-based; conditions: 1 μg/ml LPS, 5 μM nigericin
How it was run: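 LPS-primed (1 μg/ml) human THP-1 cells in serum-free RPMI were exposed to compound (8-point half-log series, top dose as printed "10M") for 3 h at 37 °C, then to nigericin 5 μM for 1 h. Remaining viability was read by resazurin (100 μM, 1-2 h) fluorescence, and IC50 came from 4-parameter variable-slope regression.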

[2] = PK, intravenous administration; format: in vivo, male Sprague Dawley rats; conditions: male, Sprague Dawley, plasma, rat, intravenous, dose 1 mg/kg; for AUC: read-out: AUC; for clearance: read-out: Cl; for half-life: read-out: T1/2 (converted); for Vd: read-out: Vdss
Procedure: as §1

NLRP3 [3] = molecular target: T1, NLRP3; assay: Human whole blood IL1β release assay (LPS + nigericin); format: cell-based; conditions: human whole blood, 1 μg/ml LPS, nigericin, IL-1β release; read-out: HWB IC50
How it was run: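 Healthy-donor heparinized whole blood with 1 μg/ml LPS preincubated 3 h at 37 °C with compound (8-point half-log, top 10 μM, 0.1% DMSO), then nigericin 1 h. Supernatant IL-1β by AlphaLISA; IC50 from 4-parameter variable-slope fit.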

T1 sequence (Q96P20 whole entry): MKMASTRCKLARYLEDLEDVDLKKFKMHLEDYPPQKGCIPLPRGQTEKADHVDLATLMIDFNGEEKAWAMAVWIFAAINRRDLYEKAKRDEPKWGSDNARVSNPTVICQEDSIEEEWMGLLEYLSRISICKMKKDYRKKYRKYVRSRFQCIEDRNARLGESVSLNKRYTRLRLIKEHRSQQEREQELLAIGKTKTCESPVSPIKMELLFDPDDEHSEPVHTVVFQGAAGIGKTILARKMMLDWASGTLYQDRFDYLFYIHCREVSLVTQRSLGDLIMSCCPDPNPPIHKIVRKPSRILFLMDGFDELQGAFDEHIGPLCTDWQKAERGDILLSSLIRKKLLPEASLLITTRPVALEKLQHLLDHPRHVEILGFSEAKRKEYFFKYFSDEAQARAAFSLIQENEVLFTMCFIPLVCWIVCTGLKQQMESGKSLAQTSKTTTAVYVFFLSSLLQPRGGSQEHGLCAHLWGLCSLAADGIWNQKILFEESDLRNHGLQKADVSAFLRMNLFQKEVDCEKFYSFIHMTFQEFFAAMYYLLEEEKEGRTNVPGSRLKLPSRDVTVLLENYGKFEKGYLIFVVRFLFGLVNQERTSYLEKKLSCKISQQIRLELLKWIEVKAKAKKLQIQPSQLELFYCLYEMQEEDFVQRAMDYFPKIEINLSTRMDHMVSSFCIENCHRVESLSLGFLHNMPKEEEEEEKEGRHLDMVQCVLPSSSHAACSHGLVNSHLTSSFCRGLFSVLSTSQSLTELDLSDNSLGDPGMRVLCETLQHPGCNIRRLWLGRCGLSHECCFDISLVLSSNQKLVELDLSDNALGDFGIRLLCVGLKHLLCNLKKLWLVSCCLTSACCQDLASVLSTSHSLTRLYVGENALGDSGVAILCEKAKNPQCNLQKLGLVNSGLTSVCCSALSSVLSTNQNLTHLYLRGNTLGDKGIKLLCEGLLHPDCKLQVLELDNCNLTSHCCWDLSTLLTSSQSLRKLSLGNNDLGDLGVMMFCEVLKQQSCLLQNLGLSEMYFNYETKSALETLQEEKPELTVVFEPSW

SMILES	AUC (PK, oral administration) [ng·h/mL]	Cmax (PK, oral administration) [ng/mL]	Tmax (PK, oral administration) [h]	half-life (PK, oral administration) [h]	IC50 (NLRP3 [1]) [nM]	AUC [2] [ng·h/mL]	clearance [2] [mL/min/kg]	half-life [2] [h]	Vd [2] [L/kg]	IC50 (NLRP3 [3]) [nM]
CCN1CCC(S(=O)(=O)NC(=O)Nc2c3c(cc4c2CCC4)CCC3)CC1 [Example 6, 1-Ethyl-N-((1,2,3,5,6,7-hexahydro-s-indacen-4-yl)carbamoyl)piperidine-4-sulfonamide, potassium salt]	5400	1770	0.5	2.7	< 1000	2340	7.2	2.7	0.61	< 1000
CC(C)N1CC(S(=O)(=O)NC(=O)Nc2c3c(cc4c2CCC4)CCC3)C1 [Example 46, N-((1,2,3,5,6,7-Hexahydro-s-indacen-4-yl)carbamoyl)-1-iso-propylazetidine-3-sulfonamide, potassium salt]	3510	1330	0.67	1.4	< 1000	2080	8.2	1.2	0.45	< 1000
COc1cc(-c2ccc3c(c2NC(=O)NS(=O)(=O)c2ccc(=O)n(C(C)C)c2)CCC3)ccn1 [Example 153, 1-Isopropyl-N-((5-(2-methoxypyridin-4-yl)-2,3-dihydro-1H-inden-4-yl)carbamoyl)-6-oxo-1,6-dihydropyridine-3-sulfonamide]					< 1000	511	32.6	1.1	1.21	< 1000
